For orientation: IC50 means the concentration at which inhibition is half-maximal.

Each structure is given as a SMILES string.

13 molecules from patent publication US12624024B2, “EP2 antagonist compounds” (Reservoir Neuroscience, Inc., priority 2021, dated 2026) can be followed below.

One data set concerns the target T1, EP2 receptor (Homo sapiens, UniProt P43116).
T1 construct: expressed in transfected cells; host or cells: CHO-K1 cells (ATCC), transient transfection with FuGENE 6
Briefly: EP2 Potency Assay (cAMP TR-FRET, CHO-K1 cells transfected with EP2 receptor, PGE2 at EC80). It is filed as cell-based. Particulars: CHO-K1 cells expressing EP2, prostaglandin E2 at EC80, read-out: EP2 Potency (IC50 category). The gist of the method:
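CHO-K1 cells transiently transfected with EP2 and seeded 24 h after transfection. IC50 from curve fit of percent inhibition versus concentration.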

Data set [1] can be described thus: Human Liver Microsome Stability. It is filed as in vitro ADME. Particulars: human liver microsomes 0.5 mg/mL, 37° C., 60 min; for half-life at 2 μM: read-out: T1/2 (microsomal); for microsomal CLint at 2 μM: read-out: in vitro CLint (microsomal). On the procedure: The tested compound was incubated in duplicate with human liver microsomes (0.5 mg/mL) at 37° C. These incubations were carried out at a final test article concentration of 2 μM over a total incubation period of 60 minutes. Samples were taken at 0, 15, 30, 45 and 60 min and the reaction terminated by addition of 4 volumes of acetonitrile containing internal standard (100 nM alprazolam, 200 nM imipramine, 200 nM labetalol and 2 μM ketoprofen). Diclofenac was used as a positive control in this study. The samples were analyzed by UPLC-MS/MS to determine the concentration of the test compound and the percent remaining, intrinsic clearance (in vitro CLint) and half-life (T1/2) values were calculated.
(§1) Chromatographic analyses were performed on a Shimadzu UPLC apparatus (Kyoto, Japan) consisting of a gradient pump (model LC-30AD), an automatic injector (model HTC PAL System) and an on-line degasser (model DGU-20A5R). Detection was a triple quadrupole tandem mass spectrometer equipped with a turbo ion spray interface (API 4000/Triple Quad 4500/Triple Quad 5500/Triple Quad 6500). Data acquisition and integration were carried out with LC-MS software (Analyst 1.6) linked directly to the LC-MS/MS system. Chromatographic separations were achieved on a XSelect Hss T3 2.5μ (2.1×30 mm) Column. The mobile phase was 0.1% formic acid in water (A) and 0.1% formic acid in acetonitrile (B). The flow rate was 1.0 mL/min and column was maintained at 40° C.
Half-life (T1/2) data is measured in minutes, and in Table B2, the data is grouped into categories of by the following rules: • T1/2 (microsomal): A=100+; B=50 to 100; C=20 to 50; D<20.
In vitro clearance (CLint) data is measured in μL/min/mg prot, and in Table B2, the data is grouped into categories of by the following rules: • CLint (microsomal): A<20; B=20 to 50; C=50 to 100; and D=100+.
On the technique in general: Liver microsomes are vesicles of endoplasmic reticulum, rich in cytochrome P450 enzymes.

Data set [2] is described as follows: Human Hepatocyte Stability. It is filed as in vitro ADME. Conditions: human hepatocytes 0.5×10^6 cells/mL, 120 min; for half-life at 1 μM: read-out: T1/2 (hepatic); for microsomal CLint at 1 μM: read-out: in vitro CLint (hepatic). As to the method:
The tested compound was incubated in duplicate with incubation media (Williams' Medium E with 1× GlutaMAX) containing human hepatocytes (0.5×10^6 cells/mL). These incubations were carried out at a final test concentration of 1 μM over a total incubation period of 120 minutes. Samples were taken at 0, 15, 30, 60, 90 and 120 min and the reaction was terminated by addition of acetonitrile containing internal standard (100 nM alprazolam, 200 nM labetalol, 200 nM caffeine and 200 nM diclofenac). Verapamil was used as the positive control in this study. The samples were analyzed by UPLC-MS/MS to determine the concentration of the tested compound and the percentage remaining, intrinsic clearance (in vitro CLint) and half-life (t½) values were calculated.
as §1
Half-life (T1/2) data is measured in minutes, and in Table B2, the data is grouped into categories of by the following rules: • T1/2 (hepatic): A=200+; B=100 to 200; C=50 to 100; and D<50.
In vitro clearance (CLint) data is measured in μL/min/mg prot, and in Table B3, the data is grouped into categories of by the following rules: • CLint (microsomal): A<5; B=5 to 10; C=10 to 20; and D=20+.

T1 sequence (P43116 whole entry): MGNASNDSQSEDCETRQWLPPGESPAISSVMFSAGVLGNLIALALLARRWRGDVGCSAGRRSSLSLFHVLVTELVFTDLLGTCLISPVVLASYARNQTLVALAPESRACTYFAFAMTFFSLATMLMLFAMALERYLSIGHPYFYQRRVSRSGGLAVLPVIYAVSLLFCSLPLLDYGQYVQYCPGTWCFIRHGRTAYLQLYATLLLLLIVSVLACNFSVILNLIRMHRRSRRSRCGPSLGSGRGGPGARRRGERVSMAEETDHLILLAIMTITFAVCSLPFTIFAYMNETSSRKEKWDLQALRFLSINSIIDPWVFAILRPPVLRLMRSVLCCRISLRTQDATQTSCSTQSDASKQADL

For `Cc1c(CN2CCOc3c(Cl)cc(-n4ccc5cc(F)ccc54)cc3C2)cnn1C` [Compound 106, 9-chloro-4-((1,5-dimethyl-1H-pyrazol-4-yl)methyl)-7-(5-fluoro-1H-indol-1-yl)-2,3,4,5-tetrahydrobenzo[f][1,4]oxazepane], the IC50 at EP2 receptor fell in the range of 0.5 to 1 µM. In data set [1], the half-life at 2 μM was less than 20 min and the microsomal CLint at 2 μM is greater than 100 µL/min/mg.

Consider `O=c1ncc(CN2CCOc3c(Cl)cc(-n4ccc5cc(F)ccc54)cc3C2)c[nH]1` [Compound 58], for which, at EP2 receptor, the IC50 is less than 0.1 µM. Moreover, in data set [1], the half-life at 2 μM was greater than 100 min and the microsomal CLint at 2 μM was less than 20 µL/min/mg. Besides, in data set [2], the half-life at 1 μM was greater than 200 min and the microsomal CLint at 1 μM was in the range of 5 to 10 µL/min/mg.

In the case of `O=C1CC(CN2CCOc3c(Cl)cc(-n4ccc5cc(F)ccc54)cc3C2)=NN1` [Compound 198, 5-{[9-chloro-7-(5-fluoroindol-1-yl)-3,5-dihydro-2H-1,4-benzoxazepin-4-yl]methyl}-2,4-dihydropyrazol-3-one], at EP2 receptor, the IC50 was in the range of 1 to 5 µM. In data set [1], the half-life at 2 μM was 20 to 50 min and the microsomal CLint at 2 μM lay within 50 to 100 µL/min/mg.

Turning to `C[C@@H]1COc2c(Cl)cc(-n3ccc4cc(F)ccc43)cc2CN1Cc1cnc(=O)[nH]c1` [Compound 9], the IC50 on EP2 receptor fell in the range of 0.1 to 0.5 µM. For the same molecule, in data set [1], the half-life at 2 μM was in the range of 50 to 100 min and the microsomal CLint at 2 μM lay within 20 to 50 µL/min/mg. Also, in data set [2], the half-life at 1 μM was less than 50 min and the microsomal CLint at 1 μM is greater than 20 µL/min/mg.

As for `Nc1cnc(CN2CCOc3c(Cl)cc(-n4ccc5cc(F)ccc54)cc3C2)cn1` [Compound 170], on EP2 receptor, the IC50 fell in the range of 0.5 to 1 µM. Moreover, in data set [1], the half-life at 2 μM is 20 to 50 min and the microsomal CLint at 2 μM was 20 to 50 µL/min/mg.

Turning to `COc1ncc(CN2CCOc3c(Cl)cc(-n4ccc5cc(F)ccc54)cc3C2)cn1` [Compound 13], the IC50 at EP2 receptor lay in the range of 0.1 to 0.5 µM. For the same molecule, in data set [1], the half-life at 2 μM is less than 20 min and the microsomal CLint at 2 μM fell in the range of 50 to 100 µL/min/mg.

Take `Nc1ncc(CN2CCOc3c(Cl)cc(-n4ccc5cc(F)ccc54)cc3C2)cn1` [Compound 146]: at EP2 receptor, the IC50 was less than 0.1 µM. Further, in data set [1], the half-life at 2 μM is less than 20 min and the microsomal CLint at 2 μM lay within 50 to 100 µL/min/mg. Besides, in data set [2], the half-life at 1 μM was 100 to 200 min and the microsomal CLint at 1 μM was 10 to 20 µL/min/mg.

Regarding `O=C1NC=C(CN2CCOc3c(Cl)cc(-n4ccc5cc(F)ccc54)cc3C2)CN1` [Compound 202], the IC50 at EP2 receptor lay in the range of 0.5 to 1 µM. Also, in data set [1], the half-life at 2 μM is 50 to 100 min and the microsomal CLint at 2 μM fell in the range of 20 to 50 µL/min/mg.

With `O=c1cc(CN2CCOc3c(Cl)cc(-n4ccc5cc(F)ccc54)cc3C2)cco1` [Compound 203, 4-{[9-chloro-7-(5-fluoroindol-1-yl)-3,5-dihydro-2H-1,4-benzoxazepin-4-yl]methyl}pyran-2-one], the IC50 at EP2 receptor lay within 0.1 to 0.5 µM. In data set [1], the half-life at 2 μM was less than 20 min and the microsomal CLint at 2 μM was in the range of 50 to 100 µL/min/mg.

Take `C[C@@H]1COc2c(Cl)cc(-n3ccc4cc(F)ccc43)cc2CN1Cc1cnc(N)nc1` [Compound 11, 5-{[9-chloro-7-(5-fluoroindol-1-yl)-3-methyl-3,5-dihydro-2H-1,4-benzoxazepin-4-yl]methyl}pyrimidin-2-amine]: the IC50 at EP2 receptor is less than 0.1 µM. Moreover, in data set [1], the half-life at 2 μM is less than 20 min and the microsomal CLint at 2 μM is greater than 100 µL/min/mg. For the same molecule, in data set [2], the half-life at 1 μM was 50 to 100 min and the microsomal CLint at 1 μM is greater than 20 µL/min/mg.

In the case of `O=c1cc(CN2CCOc3c(Cl)cc(-n4ccc5cc(F)ccc54)cc3C2)cc[nH]1` [Ref, 4-((9-chloro-7-(5-fluoro-1H-indol-1-yl)-2,3-dihydrobenzo[f][1,4]oxazepin-4(5H)-yl)methyl)pyridin-2(1H)-one, reference compound], in data set [1], the half-life at 2 μM fell in the range of 20 to 50 min and the microsomal CLint at 2 μM was in the range of 20 to 50 µL/min/mg. Also, in data set [2], the half-life at 1 μM was 100 to 200 min and the microsomal CLint at 1 μM was 5 to 10 µL/min/mg.

`O=C1CC(CN2CCOc3c(Cl)cc(-n4ccc5cc(F)ccc54)cc3C2)CCN1` (centres unmarked) [Compound 200, 4-{[9-chloro-7-(5-fluoroindol-1-yl)-3,5-dihydro-2H-1,4-benzoxazepin-4-yl]methyl}piperidin-2-one]: the IC50 at EP2 receptor was in the range of 1 to 5 µM. In data set [1], the half-life at 2 μM lay within 20 to 50 min and the microsomal CLint at 2 μM lay within 20 to 50 µL/min/mg.

On to `Fc1ccc2c(ccn2-c2cc(Cl)c3c(c2)CN(Cc2ccnc(C4COC4)c2)CCO3)c1` [Compound 187, 9-chloro-7-(5-fluoroindol-1-yl)-4-{[2-(oxetan-3-yl)pyridin-4-yl]methyl}-3,5-dihydro-2H-1,4-benzoxazepine], for which the IC50 at EP2 receptor was in the range of 0.1 to 0.5 µM. In data set [1], the half-life at 2 μM is less than 20 min and the microsomal CLint at 2 μM is greater than 100 µL/min/mg. Further, in data set [2], the half-life at 1 μM was less than 50 min and the microsomal CLint at 1 μM is greater than 20 µL/min/mg.
